Data: article PMC8983459 (Molecular cancer therapeutics, 2022)

Tests used:
[1] = test system: 22Rv1 tumors; conditions: cited from earlier work
[2] = test system: AR nuclear localization; conditions: cited from earlier work
[3] = test system: AR; test: Western blot with nucleocytoplasmic fractionation, AR level; type: cell-based, human; conditions: 10 nM, 20 h, C4-2, LN95, and 22Rv1
[4] = test system: PC-3 cells; test: Cell proliferation assay, PC-3; type: cell-based, human; conditions: PC-3, 10 μM, repeat experiment (Supplemental Fig. 2)
[5] = test system: PSA expression in LN95 cells (AR activity); test: PSA ELISA of conditioned medium, LN95 cells; type: cell-based, human
[6] = test system: PSA expression in 22Rv1 cells (AR activity); test: PSA ELISA of conditioned medium, 22Rv1 cells; type: cell-based, human
[7] = test system: 22Rv1 xenograft tumor; test: 22Rv1 xenograft tumor study in castrated mice; conditions: 10 mg/kg i.p. every day; (+)-JJ-74-138 compared to enzalutamide p < 0.05
[8] = test system: DU145 cells; test: Cell proliferation assay, DU145; type: cell-based, human; conditions: DU145, 10 μM, repeat experiment (Supplemental Fig. 2)
[9] = test system: PSA expression in C4-2 cells (AR activity); test: PSA ELISA of conditioned medium, C4-2 cells; type: cell-based, human; conditions: C4-2, 48 h
[10] = LN95, 48 h, DHT 0-1000 nM with 10 μM compound
[11] = 22Rv1, 48 h, DHT 0-1000 nM with 10 μM compound
[12] = DHT 0-1000 nM with 10 μM (+)-JJ-74-138 or 1 or 10 μM enzalutamide

Q: For CC(C)(c1ccc(OCC(O)CO)cc1)c1ccc(OCC(O)CCl)cc1 (stereo not drawn) [EPI-001], which “sensitivity of 22Rv1 tumors” value [1] is on record?
A: Its value is “resistant”.

Q: For O=C(CSCc1cnoc1)N1CCN(c2ccccc2)CC1 [IMTPPE, 2-[(isoxazol-4-ylmethyl)thio]-1-(4-phenylpiperazin-1-yl)ethanone], which “androgen-independent AR nuclear localization” value [2] is on record?
A: The value was “inhibited androgen-independent AR nuclear localization”.

Q: For C[C@]1(O)CC[C@H]2[C@@H]3CCC4=CC(=O)CCC4=C3C=C[C@@]21C [R1881], which “amount of total AR and nuclear AR level” value [3] is on record?
A: The value was “increased the amount of total AR, particularly the nuclear AR level”.

Q: For CNC(=O)c1ccc(N2C(=S)N(c3ccc(C#N)c(C(F)(F)F)c3)C(=O)C2(C)C)cc1F [enzalutamide], which cell growth [4] is on record?
A: Its cell growth is “minimal inhibitory effect”.

Q: And the inhibition at 10 µM ([5]; Homo sapiens, 48 h, read-out: inhibition of PSA levels)?
A: Its inhibition at 10 µM is about 20%.

Q: And the “DHT-stimulated PSA expression” value ([5]; LN95, 10 μM, with DHT (Fig. 3A))?
A: Its value is “effectively inhibit DHT-stimulated PSA expression”.

Q: And the “increase of EC50 of DHT induction of PSA” value [5, 10]?
A: Its value is ~ 10 fold.

Q: And the “maximal PSA induction by high DHT dosages” value (from here on “maximal PSA induction”) [5, 10]?
A: Its value is “alleviated by high doses of DHT”.

Q: And the “DHT-stimulated PSA expression” value ([6]; 22Rv1, 10 μM, with DHT (Fig. 3A))?
A: The value was “effectively inhibit DHT-stimulated PSA expression”.

Q: And the “increase of EC50 of DHT induction of PSA” value [6, 11]?
A: The value was ~ 10 fold.

Q: What about the “maximal PSA induction” value [6, 11] of the same compound?
A: Its value is “alleviated by high doses of DHT”.

Q: And the “survival (Kaplan-Meier, ad hoc analysis)” value [7]?
A: The value was “did not differ from the vehicle control”.

Q: And the cell growth [8]?
A: The cell growth was “minimal inhibitory effect”.

Q: What about the “increase of EC50 of DHT induction of PSA” value [9, 12] of the same compound?
A: The value was ~ 10 fold.

Q: What about the “maximal PSA induction” value [9, 12] of the same compound?
A: Its value is “alleviated by high doses of DHT”.

Q: What about the inhibition at 10 µM ([9]; Homo sapiens, read-out: inhibition of PSA levels) of the same compound?
A: The inhibition at 10 µM was about 70%.

Q: Which PSA expression ([5]; LN95 cells (Supplemental Fig. 3)) does the source give for CC/C(=C(\c1ccccc1)c1ccc(OCCN(C)C)cc1)c1ccccc1 [tamoxifen] here?
A: Its PSA expression is “did not affect PSA expression”.
